According to the NIST ThermoML archive (doi:10.1016/j.fluid.2015.04.021):

Columns and labels:
[1] = cn = amount concentration of the nth substance listed, in mol/dm3; settings: 101.3 kPa, Liquid, Falling or rolling sphere viscometry, c2 = 0
[2] = Liquid; for viscosity: Falling or rolling sphere viscometry; for mass density: Vibrating tube method

O [water] + NCCCC[C@H](N)C(=O)[O-].[K+]
[1]
Settings | viscosity [mPa·s]
298.15 K | 0.8908
303.15 K | 0.799
308.15 K | 0.722
313.15 K | 0.6564
318.15 K | 0.6009

O [water]
[2], 101.3 kPa
Settings | viscosity [mPa·s]
293.15 K | 1.002
298.15 K | 0.8908
303.15 K | 0.799
308.15 K | 0.722
313.15 K | 0.6564
318.15 K | 0.6009

NCCO [2-aminoethan-1-ol]
[2], 101.33 kPa
Settings | mass density [kg/m3] | viscosity [mPa·s]
303.15 K | 1007.7 | 14.61
313.15 K | 999.8 | 9.724
323.15 K | 991.7 | 6.807
333.15 K | 983.7 | 4.97
343.15 K | 975.5 | 3.784

O [water] + O=C([O-])[C@@H]1CCCN1.[K+]
[1]
Settings | viscosity [mPa·s]
298.15 K | 0.8908
303.15 K | 0.799
308.15 K | 0.722
313.15 K | 0.6564
318.15 K | 0.6009
